Results reported in US12338220B2, “Antiviral pyrazolopiridinone compounds” (Novartis AG, priority 2019, dated 2025).
Where two headings read alike, the source gives them in different places.

Assays:
[1] = test system: CMV; experiment: microbe, parasite or virus in culture; assay type: cell-based
[2] = test system: KOS strain of HSV-1 virus; experiment: HSV-1 qPCR assay; details: Human alphaherpesvirus 1, 24 h
[3] = molecular target: CMV-polymerase (Human cytomegalovirus (strain AD169) (HHV-5) (Human herpesvirus 5), UniProt P08546); experiment: biochemical; details: read-out: CMV-polymerase Biochemical IC50
[4] = test system: VZV Ellen strain; experiment: VZV qPCR assay; details: Human alphaherpesvirus 3, MRC5, 48 h, read-out: Cellular activity against VZV (EC50)
[5] = molecular target: HSV-polymerase (Human herpesvirus 1 (strain 17) (HHV-1) (Human herpes simplex virus 1), UniProt P04293); experiment: biochemical
[6] = test system: HCMV-Rluc virus (AD169 pp28-hRluc rUL131); experiment: CMV Luciferase Assay of Compounds 243-262 in ARPE-19 cells; assay type: cell-based; details: read-out: CMV-Luc Cellular EC50 in ARPE-19
Protocol: CMV Luciferase Assay of Compounds 243-262.
Compounds 243-262 were tested in a luminescence assay as follows.
ARPE-19 cells were maintained in growth medium (DMEM/F12 Glutamax+10 fetal bovine serum (FBS)+PenStrep) and, before reaching full confluence, were transferred to a centrifuge tube and spun for 5 minutes at 1000 rpm. The cells were resuspended in assay medium (DMEM/F12 Glutamax+2% FBS+PenStrep) and counted. Cell density was adjusted to one million cells per milliliter and infected with HCMV-Rluc virus (AD169 pp28-hRluc rUL131; MOI 0.6) in a 50 ml conical tube for 2 hours while shaking. After dilution of the infectious suspension ten-fold (to 100,000 cells per milliliter), 8000 cells are directly plated in 384-well plates pre-spotted with the compound to be tested. The cells were incubated for 72 hours at 37 degrees Celsius. Cells were then placed at room temperature and allowed to equilibrate for 20 minutes before addition of the Renilla-Glo (Promega) reagent. After a 10-minute incubation at room temperature, luminescence was measured on a microplate reader.

[7] = Human betaherpesvirus 5, 72 h, read-out: CMV-Luc Cellular EC50, NN-NHDF cells, MOI 1, 72 hrs
[8] = Human betaherpesvirus 5, read-out: Cellular activity against CMV (EC50), Table 18
[9] = read-out: Cellular activity against HSV-1 (EC50), NN-NHDF cells, MOI 0.01, 24 hrs, qPCR
[10] = Human betaherpesvirus 5, AD169, ARPE-19, 72 h

Row | SMILES | EC50 [1, 7] [µM] | EC50 [1, 8] [µM] | EC50 [6, 10] [µM] | also measured
1 | Cn1nc(C(=O)NCc2ccc(Cl)cc2)c2c1C(=O)N(CC1(S(=O)(=O)C(C)(C)C(O)CN)CC1)CC2 (single isomer, unassigned) [Example 200, (R)- or (S)-6-((1-((4-Amino-3-hydroxy-2-methylbutan-2-yl)sulfonyl)cyclopropyl)methyl)-N-(4-chlorobenzyl)-1-methyl-7-oxo-4,5,6,7-tetrahydro-1H-pyrazolo[3,4-c]pyridine-3-carboxamide] | 0.005 | 0.005 |  | EC50 [2, 9]: 0.016 µM
2 | Cn1nc(C(=O)NCc2ccc(C#N)cc2)c2c1C(=O)N(CC1(S(=O)(=O)C3CC3)CC1)CC2 [Example 3, N-(4-cyanobenzyl)-6-((1-(cyclopropylsulfonyl)cyclopropyl)methyl)-1-methyl-7-oxo-4,5,6,7-tetrahydro-1H-pyrazolo[3,4-c]pyridine-3-carboxamide] | 0.039 | 0.039 |  | IC50 [3]: 0.002 µM; EC50 [4]: 0.011 µM; EC50 ([2]; read-out: Cellular activity against HSV-1 (EC50)): 0.033 µM
3 | Cn1nc(C(=O)NCc2ccc(Cl)cc2)c2c1C(=O)N(CC1(S(=O)(=O)C3CC3)CC1)CC2 [Example 4, N-(4-Chlorobenzyl)-6-((1-(cyclopropylsulfonyl)cyclopropyl)methyl)-1-methyl-7-oxo-4,5,6,7-tetrahydro-1H-pyrazolo[3,4-c]pyridine-3-carboxamide] | 0.023 | 0.023 |  | IC50 [3]: 0.002 µM; EC50 [4]: 0.008 µM; EC50 [2, 9]: 0.064 µM
4 | Cn1nc(C(=O)NCc2ccc(C#N)cc2)c2c1C(=O)N(CC1(S(=O)(=O)C(C)(C)COCCN)CC1)CC2 [Example 92, 6-((1-((1-(2-Aminoethoxy)-2-methylpropan-2-yl)sulfonyl)cyclopropyl)methyl)-N-(4-cyanobenzyl)-1-methyl-7-oxo-4,5,6,7-tetrahydro-1H-pyrazolo[3,4-c]pyridine-3-carboxamide] | 0.012 | 0.012 |  | IC50 [3]: 0.001 µM; EC50 [2, 9]: 0.03 µM; IC50 [5]: 0.03 µM
5 | CC1(S(=O)(=O)C2(CN3CCc4c(C(=O)NCc5ccc(C#N)cc5)nn(CCO)c4C3=O)CC2)CC1 [Example 217, N-(4-Cyanobenzyl)-1-(2-hydroxyethyl)-6-((1-((1-methylcyclopropyl)sulfonyl)cyclopropyl)methyl)-7-oxo-4,5,6,7-tetrahydro-1H-pyrazolo[3,4-c]pyridine-3-carboxamide] | 0.029 | 0.029 |  | IC50 [3]: 0.001 µM; EC50 [2, 9]: 0.036 µM
6 | CC(C)(CO)S(=O)(=O)C1(CN2CCc3c(C(=O)NCc4ccc(Cl)cc4)nn(CCO)c3C2=O)CC1 [Example 221, N-(4-chlorobenzyl)-6-((1-((1-hydroxy-2-methylpropan-2-yl)sulfonyl)cyclopropyl)methyl)-1-(2-hydroxyethyl)-7-oxo-4,5,6,7-tetrahydro-1H-pyrazolo[3,4-c]pyridine-3-carboxamide] | 0.017 | 0.017 |  | IC50 [3]: 0.001 µM; EC50 [2, 9]: 0.01 µM
7 | Cn1nc(C(=O)NCc2ccc(Cl)c(F)c2)c2c1C(=O)N(CC1(S(=O)(=O)C(C)(C)[C@H](O)CO)CC1)CC2 [Example 250, (R)—N-(4-chloro-3-fluorobenzyl)-6-((1-((3,4-dihydroxy-2-methylbutan-2-yl)sulfonyl)cyclopropyl)methyl)-1-methyl-7-oxo-4,5,6,7-tetrahydro-1H-pyrazolo[3,4-c]pyridine-3-carboxamide] |  |  | 0.0267 | 
8 | Cn1nc(C(=O)NCc2ccc(Cl)c(F)c2)c2c1C(=O)N(CC1(S(=O)(=O)C(C)(C)[C@@H](O)CO)CC1)CC2 [Example 251, (S)—N-(4-chloro-3-fluorobenzyl)-6-((1-((3,4-dihydroxy-2-methylbutan-2-yl)sulfonyl)cyclopropyl)methyl)-1-methyl-7-oxo-4,5,6,7-tetrahydro-1H-pyrazolo[3,4-c]pyridine-3-carboxamide] |  |  | 0.00983 | 
9 | Cn1nc(C(=O)NCc2ccc(C#N)cc2)c2c1C(=O)N(CC1(S(=O)(=O)C(C)(C)C(O)CO)CC1)CC2 (stereo not drawn) [Example 252, N-(4-cyanobenzyl)-6-((1-((3,4-dihydroxy-2-methylbutan-2-yl)sulfonyl)cyclopropyl)methyl)-1-methyl-7-oxo-4,5,6,7-tetrahydro-1H-pyrazolo[3,4-c]pyridine-3-carboxamide] |  |  |  | EC50 ([6]; ARPE-19 cells, MOI 0.6, 72 hours): 0.0219 µM
10 | Cn1nc(C(=O)NCc2ccc(C#N)cc2)c2c1C(=O)N(CC1(S(=O)(=O)NC(C)(C)CC(N)=O)CC1)CC2 [Example 253, 6-((1-(N-(4-amino-2-methyl-4-oxobutan-2-yl)sulfamoyl)cyclopropyl)methyl)-N-(4-cyanobenzyl)-1-methyl-7-oxo-4,5,6,7-tetrahydro-1H-pyrazolo[3,4-c]pyridine-3-carboxamide] |  |  | 0.386 | 
11 | CN(C)C(=O)CCNS(=O)(=O)C1(CN2CCc3c(C(=O)NCc4ccc(C#N)cc4)nn(C)c3C2=O)CC1 [Example 254, N-(4-cyanobenzyl)-6-((1-(N-(3-(dimethylamino)-3-oxopropyl)sulfamoyl)cyclopropyl)methyl)-1-methyl-7-oxo-4,5,6,7-tetrahydro-1H-pyrazolo[3,4-c]pyridine-3-carboxamide] |  |  | 1 | 
12 | Cn1nc(C(=O)NCc2ccc(C#N)cc2)c2c1C(=O)N(CC1(S(=O)(=O)N3C[C@H](O)[C@@H](O)C3)CC1)CC2 [Example 255, N-(4-cyanobenzyl)-6-((1-(((3S,4S)-3,4-dihydroxypyrrolidin-1-yl)sulfonyl)cyclopropyl)methyl)-1-methyl-7-oxo-4,5,6,7-tetrahydro-1H-pyrazolo[3,4-c]pyridine-3-carboxamide] |  |  | 0.313 | 
13 | Cn1nc(C(=O)NCc2ccc(C#N)cc2)c2c1C(=O)N(CC1(S(=O)(=O)NC3(c4cccnn4)CC3)CC1)CC2 [Example 256, N-(4-cyanobenzyl)-1-methyl-7-oxo-6-((1-(N-(1-(pyridazin-3-yl)cyclopropyl)sulfamoyl)cyclopropyl)methyl)-4,5,6,7-tetrahydro-1H-pyrazolo[3,4-c]pyridine-3-carboxamide] |  |  | 10 | 
14 | Cn1nc(C(=O)NCc2ccc(C#N)cc2)c2c1C(=O)N(CC1(S(=O)(=O)NC(C)(CO)CO)CC1)CC2 [Example 257, N-(4-cyanobenzyl)-6-((1-(N-(1,3-dihydroxy-2-methylpropan-2-yl)sulfamoyl)cyclopropyl)methyl)-1-methyl-7-oxo-4,5,6,7-tetrahydro-1H-pyrazolo[3,4-c]pyridine-3-carboxamide] |  |  | 0.358 | 
15 | Cn1nc(C(=O)NCc2ccc(C#N)cc2)c2c1C(=O)N(CC1(S(=O)(=O)NCc3ncccn3)CC1)CC2 [Example 258, N-(4-cyanobenzyl)-1-methyl-7-oxo-6-((1-(N-(pyrimidin-2-ylmethyl)sulfamoyl)cyclopropyl)methyl)-4,5,6,7-tetrahydro-1H-pyrazolo[3,4-c]pyridine-3-carboxamide] |  |  | 0.688 | 
16 | CC(NS(=O)(=O)C1(CN2CCc3c(C(=O)NCc4ccc(C#N)cc4)nn(C)c3C2=O)CC1)c1cnccn1 (stereo not drawn) [Example 259, N-(4-cyanobenzyl)-1-methyl-7-oxo-6-((1-(N-(1-(pyrazin-2-yl)ethyl)sulfamoyl)cyclopropyl)methyl)-4,5,6,7-tetrahydro-1H-pyrazolo[3,4-c]pyridine-3-carboxamide] |  |  | 0.714 | 
17 | Cn1nc(C(=O)NCc2ccc(C#N)cc2)c2c1C(=O)N(CC1(S(=O)(=O)NCc3cnccn3)CC1)CC2 [Example 260, N-(4-cyanobenzyl)-1-methyl-7-oxo-6-((1-(N-(pyrazin-2-ylmethyl)sulfamoyl)cyclopropyl)methyl)-4,5,6,7-tetrahydro-1H-pyrazolo[3,4-c]pyridine-3-carboxamide] |  |  | 0.278 | 
18 | Cn1nc(C(=O)NCc2ccc(C#N)cc2)c2c1C(=O)N(CC1(S(=O)(=O)NC(CO)(CO)CO)CC1)CC2 [Example 261, N-(4-cyanobenzyl)-6-((1-(N-(1,3-dihydroxy-2-(hydroxymethyl)propan-2-yl)sulfamoyl)cyclopropyl)methyl)-1-methyl-7-oxo-4,5,6,7-tetrahydro-1H-pyrazolo[3,4-c]pyridine-3-carboxamide] |  |  | 2.58 | 
19 | Cn1nc(C(=O)NCc2ccc(C#N)cc2)c2c1C(=O)N(CC1(S(N)(=O)=O)CC1)CC2 [Example 262, N-(4-cyanobenzyl)-1-methyl-7-oxo-6-((1-sulfamoylcyclopropyl)methyl)-4,5,6,7-tetrahydro-1H-pyrazolo[3,4-c]pyridine-3-carboxamide] |  |  | 0.252 | 
